US6111069A, “Polypeptides that include conformation-constraining groups which flank a protein-protein interaction site” (Virginia Commonwealth University, priority 1997, dated 2000)
Where a SMILES comes first, the peptide text is derived from it.

Columns and labels:
[1] = Preliminary studies of hypotensive peptide versus diltiazem (diastolic pressure, arrhythmia); format: in vivo, rat
Procedure: 60 to 120 μg per rat (5 to 10 μM).

[2] = system: receptors of sweet tasting papillae; conditions: comparison value; cited from earlier work

Compound | Effect on diastolic pressure [1] | Sweetness relative to sugar [2]
CSCC[C@H](NC(=O)[C@H](C)NC(=O)[C@@H](NC(=O)[C@@H]1CCCN1C(=O)[C@H](C)N)[C@@H](C)O)C(=O)N[C@@H](Cc1c[nH]c2ccccc12)C(=O)N1CCC[C@H]1C(=O)N[C@@H](C)C(=O)O [HP-1, Ala-Pro-Thr-Ala-Met-Trp-Pro-Ala] (H-APTAMWPA-OH) | does not increase diastolic pressure | –
COC(=O)[C@H](Cc1ccccc1)NC(=O)[C@@H](N)CC(=O)O [aspartame] (H-Asp-Phe-OMe) | – | 160 times sweeter than sugar
